# Results as given in article PMC2659609 (Molecular cancer therapeutics, 2008).
# Key:
# [1] = system: human hepatoma cell line HepG2; assay: General cell cytotoxicity assay; format: cell-based; conditions: 20μM, 72 hours, media and compounds replaced every 24 hours
# [2] = target: full-length wild-type mouse hepsin expressed in HEK 293FT cells (Mus musculus, UniProt O35453); assay: Hepsin-dependent pericellular serine proteolytic activity assay; format: cell-based
# [3] = system: HEK 293FT cells; assay: Toxicity to HEK 293FT cells under pericellular assay conditions; format: cell-based; conditions: 24-hour treatment
# [4] = target: thrombin (Bos taurus, UniProt P00735); assay: Thrombin activity assay, chromogenic substrate pyroGlu-Pro-Arg-pNA, kinetic; format: biochemical
# [5] = target: purified recombinant human hepsin (Homo sapiens, UniProt P05981); assay: Hepsin activity assay, chromogenic substrate pyroGlu-Pro-Arg-pNA, kinetic
# purified recombinant human hepsin, sequence (P05981 46-417): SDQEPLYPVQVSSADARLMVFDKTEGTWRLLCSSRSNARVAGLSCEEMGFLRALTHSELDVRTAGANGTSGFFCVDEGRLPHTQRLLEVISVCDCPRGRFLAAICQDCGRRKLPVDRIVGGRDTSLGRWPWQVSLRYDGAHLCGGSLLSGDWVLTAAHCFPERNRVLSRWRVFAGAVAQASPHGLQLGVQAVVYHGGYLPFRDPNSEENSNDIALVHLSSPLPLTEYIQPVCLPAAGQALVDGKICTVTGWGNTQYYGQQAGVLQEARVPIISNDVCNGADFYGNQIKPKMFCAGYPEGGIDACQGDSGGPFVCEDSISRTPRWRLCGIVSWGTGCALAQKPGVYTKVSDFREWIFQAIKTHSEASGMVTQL
# [6] = system: mouse prostate epithelial cell line MP-1; assay: General cell cytotoxicity assay; format: cell-based; conditions: 20μM, 72 hours, media and compounds replaced every 24 hours
# [7] = target: trypsin (Sus scrofa, UniProt P00761); assay: Trypsin activity assay, chromogenic substrate pyroGlu-Pro-Arg-pNA, kinetic; format: biochemical
# trypsin, sequence (P00761 9-231): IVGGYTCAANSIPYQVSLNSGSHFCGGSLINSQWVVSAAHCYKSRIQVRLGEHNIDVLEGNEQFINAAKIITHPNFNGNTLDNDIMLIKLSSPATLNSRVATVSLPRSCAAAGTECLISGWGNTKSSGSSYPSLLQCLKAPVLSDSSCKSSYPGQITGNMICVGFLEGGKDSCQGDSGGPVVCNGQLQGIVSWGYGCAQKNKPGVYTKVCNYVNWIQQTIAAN
# [8] = system: human prostate cancer cell line LNCaP; assay: General cell cytotoxicity assay; format: cell-based; conditions: 20μM, 72 hours, media and compounds replaced every 24 hours
# [9] = approximate; cited from earlier work
# [10] = mainly to albumin; cited from earlier work
# full-length wild-type mouse hepsin expressed in HEK 293FT cells, sequence (O35453 1-416 isoform O35453-2): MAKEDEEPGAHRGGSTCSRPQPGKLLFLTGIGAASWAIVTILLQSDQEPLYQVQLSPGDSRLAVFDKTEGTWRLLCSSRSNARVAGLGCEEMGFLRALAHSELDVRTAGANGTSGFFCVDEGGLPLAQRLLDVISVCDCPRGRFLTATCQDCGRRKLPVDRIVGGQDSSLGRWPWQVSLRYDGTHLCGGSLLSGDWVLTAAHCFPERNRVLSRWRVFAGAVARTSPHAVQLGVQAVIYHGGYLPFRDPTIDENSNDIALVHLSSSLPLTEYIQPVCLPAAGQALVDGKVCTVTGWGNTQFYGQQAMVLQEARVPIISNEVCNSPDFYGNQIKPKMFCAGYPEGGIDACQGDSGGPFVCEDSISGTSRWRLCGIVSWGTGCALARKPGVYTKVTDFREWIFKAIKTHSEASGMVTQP
SMILES,cytotoxicity to HepG2 cells [1],IC50 [4],cytotoxicity to MP-1 cells [6],cytotoxicity to LNCaP cells [8],also measured
"Cc1cccc(CN2CCN(C(c3ccccc3)c3ccc(Cl)cc3)CC2)c1 (stereo not shown) [Compound 13, meclizine]",limited or no cytotoxicity,> 20 µM,limited or no cytotoxicity,limited or no cytotoxicity,"attenuation of pericellular proteolytic activity ([2]; 50μM, normalized to hepsin expression level, relative to vehicle): ~25%; overt toxicity to HEK 293FT cells / effect on hepsin expression levels ([3]; 20 and 50μM): without substantially affecting hepsin expression levels or displaying overt toxicity; equilibration time dependence of hepsin inhibition [5]: significantly increased with extended equilibration time; reversibility of hepsin inhibition by dilution ([5]; inhibitor at its IC50, 1 hour at room temperature, then diluted): not reversible by dilution; IC50 [7]: > 20 µM"
"CC(C)(Sc1cc(C(C)(C)C)c(O)c(C(C)(C)C)c1)Sc1cc(C(C)(C)C)c(O)c(C(C)(C)C)c1 [Compound 14, probucol]",limited or no cytotoxicity,> 20 µM,limited or no cytotoxicity,limited or no cytotoxicity,"logP [9]: ~10; attenuation of pericellular proteolytic activity (in words) ([2]; 20 and 50μM, 24 hours): did not reduce"
"O=C1c2c(O)cccc2Cc2cccc(O)c21 [Compound 15, anthralin]",toxic,> 20 µM,toxic,toxic,toxicity to HEK 293FT cells ([3]; 50μM): substantial toxicity
"Oc1nc2cc(Cl)c(Cl)cc2nc1O [Compound 16, 2,3-dihydroxy-6,7-dichloroquinoxaline]",limited or no cytotoxicity,,limited or no cytotoxicity,limited or no cytotoxicity,
Cl.NCCc1ccc(S(=O)(=O)F)cc1 [PEFAbloc],,,,,"inhibition of hepsin proteolytic activity (in words) ([5]; 4mM PEFAbloc, 30 minutes, 0.4nM hepsin): completely inhibited"
O=C1Nc2ccc(Cl)cc2[C@@](C#CC2CC2)(C(F)(F)F)O1 [efavirenz],,,,,protein bound in plasma [10]: more than 99%
